Experimental findings from patent US20260042769A1, “TRIARYL AGONISTS OF ALPHA-2 ADRENERGIC RECEPTORS” (ALCEPTOR THERAPEUTICS, INC., priority 2023, published 2026) are described below.

A word on the EC50: it is the concentration at which the effect is half-maximal.

This assay concerns the target T1, human ADRA2B receptor (Homo sapiens, UniProt P18089).
T1 construct: expressed in transfected cells
T1 sequence (P18089 1-450): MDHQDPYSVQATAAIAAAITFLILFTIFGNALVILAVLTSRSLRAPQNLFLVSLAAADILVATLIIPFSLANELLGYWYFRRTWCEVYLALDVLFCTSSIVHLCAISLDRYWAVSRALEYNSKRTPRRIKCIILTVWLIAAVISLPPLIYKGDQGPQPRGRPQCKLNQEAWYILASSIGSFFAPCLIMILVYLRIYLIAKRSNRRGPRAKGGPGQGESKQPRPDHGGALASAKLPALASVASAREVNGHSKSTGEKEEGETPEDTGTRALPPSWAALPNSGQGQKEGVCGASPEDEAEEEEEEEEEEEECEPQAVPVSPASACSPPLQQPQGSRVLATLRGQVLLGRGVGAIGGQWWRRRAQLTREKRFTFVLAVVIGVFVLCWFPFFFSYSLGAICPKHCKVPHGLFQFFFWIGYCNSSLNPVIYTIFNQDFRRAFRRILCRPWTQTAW
Put plainly: GTPγS agonist assay, ADRA2B receptor. Type of assay: biochemical. As to conditions: read-out: GTPase - Human Alpha2B EC50. The procedure: GTP ? S Agonist Assays (ADRA2A, ADRA2B, and ADRA2C Receptors)
Membranes were prepared for GTP ? S binding assays from CHO-K1 cells stably expressing human ADRA2A, ADRA2B, or ADRA2C receptor. Briefly, cells were grown in 5-layer cell culture flasks. Cells were washed with 50 mL of PBS and then dissociated with 0.05% trypsin. Dissociated cells were then collected by centrifugation at 650×g for 8 min at 4° C. Pellets were washed again in PBS by centrifugation and resuspended in 30 mL of 20 mM HEPES, 10 mM EDTA, pH 7.4. After sitting on ice for 30 min, membranes were collected by centrifugation at 50000×g for 15 min at 4° C., resuspended in 30 mL of 20 mM HEPES, 0.1 mM EDTA, pH 7.4 and collected again by centrifugation. Pellets were then washed twice by centrifugation in 30 mL of 20 mM HEPES, pH 7.4, and stored at −80° C. until the day of the assay. On the day of the assay, pellets were thawed on ice and resuspended in 1 mL of 20 mM HEPES, pH 7.4, 10 mM MgCl2, 100 mM NaCl using dounce homogenization. Membrane protein concentration was determined by BCA protein assay (Promega, Madison, WI) according to Promega guidelines.
On the day of the assay, serial dilutions of test compounds were brought up in assay buffer (20 mM HEPES, 10 mM MgCl2, 200 mM NaCl) at 10× final assay concentration. 50 μL/well of membrane homogenates (containing 5 μg of membrane protein for ADRA2A, ADRA2B, or 7.5 μg for ADRA2C) were prepared in assay buffer supplemented with GDP at 2× final assay concentration (5 μM GDP) and dispensed into 96 well polypropylene, U-bottom Greiner plates. Then, 10 μL of compounds were added to assay plates and incubated for 10 min at room temperature. […] The binding reaction was incubated for 1 h at 37° C. Membranes in assay reactions were then transferred to GF/C filter plates (UniFilter, Perkin Elmer) and washed three times using a FilterMate Harvester (Perkin Elmer) with cold assay buffer containing no GDP. Filter plates were then dried at 40° C. overnight followed by the addition of 30 μL/well of Beta Plate Scintillation liquid. Plates were top and bottom sealed before being read on TopCount scintillation counter (Perkin Elmer, Waltham, MA).

Regarding `COc1cccc(C[C@@H](c2cnc[nH]2)c2cccc3c2CCO3)n1` [Compound 19, 2-[(2R)-2-(2,3-dihydro-1-benzofuran-4-yl)-2-(1H-imidazol-4-yl)ethyl]-6-methoxypyridine], the EC50 fell in the range of 10 to 50 nM.
The same measure for `COc1cccc(CC(c2cnc[nH]2)c2cccc(OC)c2Cl)n1` (stereo not shown) [Compound 20, 2-[2-(2-chloro-3-methoxyphenyl)-2-(1H-imidazol-4-yl)ethyl]-6-methoxypyridine]: under 10 nM; for `COc1cccc(C[C@@H](c2cccc(Cl)c2)c2cnc[nH]2)n1` [Compound 21, 2-[(2S)-2-(3-chlorophenyl)-2-(1H-imidazol-4-yl)ethyl]-6-methoxypyridine]: 10 to 50 nM.
The same measure for `COc1cccc(C[C@H](c2cccc(Cl)c2)c2cnc[nH]2)n1` [Compound 22, 2-[(2R)-2-(3-chlorophenyl)-2-(1H-imidazol-4-yl)ethyl]-6-methoxypyridine]: over 500 nM; for `COc1cccc(C[C@@H](c2cccc(C)c2)c2cnc[nH]2)n1` [Compound 23, 2-[(2S)-2-(1H-imidazol-4-yl)-2-(3-methylphenyl)ethyl]-6-methoxypyridine]: under 10 nM; for `COc1cccc(C[C@H](c2cccc(C)c2)c2cnc[nH]2)n1` [Compound 24, 2-[(2R)-2-(1H-imidazol-4-yl)-2-(3-methylphenyl)ethyl]-6-methoxypyridine]: over 500 nM.
The same measure for `COc1cccc(C(Cc2cccc(OC)n2)c2cnc[nH]2)c1` (stereo not shown) [Compound 25, 2-[2-(1H-imidazol-4-yl)-2-(3-methoxyphenyl)ethyl]-6-methoxypyridine]: 50 to 500 nM.
For `COc1cccc(C[C@H](c2cnc[nH]2)c2cccc(OC)c2C)n1` [Compound 26, 2-[(2S)-2-(1H-imidazol-4-yl)-2-(3-methoxy-2-methylphenyl)ethyl]-6-methoxypyridine], the EC50 lay in the range of 50 to 500 nM.
`COc1cccc(C[C@@H](c2cnc[nH]2)c2cccc(OC)c2C)n1` [Compound 27, 2-[(2R)-2-(1H-imidazol-4-yl)-2-(3-methoxy-2-methylphenyl)ethyl]-6-methoxypyridine]: the EC50 is under 10 nM.
Turning to `COc1cccc(CC(c2c[nH]cn2)c2cccc(C)c2Cl)n1` (stereo not shown) [Compound 28, 2-[2-(2-chloro-3-methylphenyl)-2-(1H-imidazol-4-yl)ethyl]-6-methoxypyridine], the EC50 was under 10 nM.
Turning to `FC(F)(F)Oc1ccccc1[C@H](Cc1ccccn1)c1cnc[nH]1` [Compound 29, 2-[(2S)-2-(1H-imidazol-4-yl)-2-[2-(trifluoromethoxy)phenyl]ethyl] pyridine], the EC50 is over 500 nM.
As for `FC(F)(F)Oc1ccccc1[C@@H](Cc1ccccn1)c1cnc[nH]1` [Compound 30, 2-[(2R)-2-(1H-imidazol-4-yl)-2-[2-(trifluoromethoxy)phenyl]ethyl] pyridine], the EC50 is over 500 nM.
`COc1ccccc1[C@H](Cc1ccccn1)c1cnc[nH]1` [Compound 31, 2-[(2S)-2-(1H-imidazol-4-yl)-2-(2-methoxyphenyl)ethyl]pyridine]: the EC50 was over 500 nM.
The same measure for `COc1ccccc1[C@@H](Cc1ccccn1)c1cnc[nH]1` [Compound 32, 2-[(2R)-2-(1H-imidazol-4-yl)-2-(2-methoxyphenyl)ethyl]pyridine]: over 500 nM.
Regarding `COc1c(C)cccc1[C@H](Cc1ccccn1)c1cnc[nH]1` [Compound 33, 2-[(2S)-2-(1H-imidazol-4-yl)-2-(2-methoxy-3-methylphenyl)ethyl]pyridine], the EC50 was over 500 nM.
As for `COc1c(C)cccc1[C@@H](Cc1ccccn1)c1cnc[nH]1` [Compound 34, 2-[(2R)-2-(1H-imidazol-4-yl)-2-(2-methoxy-3-methylphenyl)ethyl]pyridine], the figure is over 500 nM.
For `FC(F)(F)Oc1cccc([C@H](Cc2ccccn2)c2cnc[nH]2)c1` [Compound 35, 2-[(2S)-2-(1H-imidazol-4-yl)-2-[3-(trifluoromethoxy)phenyl]ethyl] pyridine], the EC50 is over 500 nM.
The same measure for `FC(F)(F)Oc1cccc([C@@H](Cc2ccccn2)c2cnc[nH]2)c1` [Compound 36, 2-[(2R)-2-(1H-imidazol-4-yl)-2-[3-(trifluoromethoxy)phenyl]ethyl] pyridine]: 10 to 50 nM; for `FC(F)Oc1cccc([C@H](Cc2ccccn2)c2cnc[nH]2)c1` [Compound 37]: 10 to 50 nM; for `FC(F)Oc1cccc([C@@H](Cc2ccccn2)c2cnc[nH]2)c1` [Compound 38, 2-[(2R)-2-[3-(difluoromethoxy)phenyl]-2-(1H-imidazol-4-yl)ethyl]pyridine]: over 500 nM.
As for `Cc1cccc([C@H](Cc2ccccn2)c2cnc[nH]2)c1F` [Compound 39, 2-[(2S)-2-(2-fluoro-3-methylphenyl)-2-(1H-imidazol-4-yl)ethyl] pyridine], the figure is over 500 nM; as for `Cc1cccc([C@@H](Cc2ccccn2)c2cnc[nH]2)c1F` [Compound 40, 2-[(2R)-2-(2-fluoro-3-methylphenyl)-2-(1H-imidazol-4-yl)ethyl] pyridine], 10 to 50 nM; as for `c1ccc(C[C@H](c2cnc[nH]2)c2cccc3c2CCO3)nc1` [Compound 41, 2-[(2S)-2-(2,3-dihydro-1-benzofuran-4-yl)-2-(1H-imidazol-4-yl)ethyl]pyridine], under 10 nM.
As to `c1ccc(C[C@@H](c2cnc[nH]2)c2cccc3c2CCO3)nc1` [Compound 42, 2-[(2R)-2-(2,3-dihydro-1-benzofuran-4-yl)-2-(1H-imidazol-4-yl)ethyl] pyridine], the EC50 lay in the range of 50 to 500 nM.
As for `c1ccc(C[C@H](c2cnc[nH]2)c2cccc3c2OCC3)nc1` [Compound 43, 2-[(2S)-2-(2,3-dihydro-1-benzofuran-7-yl)-2-(1H-imidazol-4-yl)ethyl] pyridine], the figure is over 500 nM; as for `c1ccc(C[C@@H](c2c[nH]cn2)c2cccc3c2OCC3)nc1` [Compound 44, 2-[(2R)-2-(2,3-dihydro-1-benzofuran-7-yl)-2-(1H-imidazol-4-yl)ethyl] pyridine], 10 to 50 nM.
For `c1ccc(C[C@H](c2cnc[nH]2)c2cccc3c2COC3)nc1` [Compound 45, 2-[(2S)-2-(1,3-dihydro-2-benzofuran-4-yl)-2-(1H-imidazol-4-yl)ethyl] pyridine], the EC50 was over 500 nM.
As for `c1ccc(C[C@@H](c2cnc[nH]2)c2cccc3c2COC3)nc1` [Compound 46, 2-[(2R)-2-(1,3-dihydro-2-benzofuran-4-yl)-2-(1H-imidazol-4-yl)ethyl] pyridine], the figure is over 500 nM; as for `Cc1cccc([C@H](Cc2ccccn2)c2cnc[nH]2)c1Cl` [Compound 47, 2-[(2S)-2-(2-chloro-3-methylphenyl)-2-(1H-imidazol-4-yl)ethyl] pyridine], over 500 nM; as for `Cc1cccc([C@@H](Cc2ccccn2)c2cnc[nH]2)c1Cl` [Compound 48, 2-[(2R)-2-(2-chloro-3-methylphenyl)-2-(1H-imidazol-4-yl)ethyl]pyridine], 10 to 50 nM.
As for `Cc1c(Cl)cccc1C(Cc1ccccn1)c1cnc[nH]1` (stereo not shown) [Compound 49, 2-[2-(3-chloro-2-methylphenyl)-2-(1H-imidazol-4-yl)ethyl] pyridine], the figure is 50 to 500 nM; as for `Cc1cccc(C(Cc2ccccn2)c2cnc[nH]2)c1C` (stereo not shown) [Compound 50, 2-[2-(2,3-dimethylphenyl)-2-(1H-imidazol-5-yl)ethyl] pyridine], over 500 nM; as for `Cc1cccc([C@H](Cc2ccccn2)c2cnc[nH]2)c1C` [Compound 51, 2-[(2S)-2-(2,3-dimethylphenyl)-2-(1H-imidazol-4-yl)ethyl] pyridine], 50 to 500 nM.
The same measure for `Cc1cccc([C@@H](Cc2ccccn2)c2cnc[nH]2)c1C` [Compound 52, 2-[(2R)-2-(2,3-dimethylphenyl)-2-(1H-imidazol-4-yl)ethyl] pyridine]: 10 to 50 nM.
